In US6706509B2, “Oncoprotein protein kinase” (The Regents of the University of California, priority 1993, dated 2004):

Test system: N-terminal c-Jun kinase (JNK)
Assay: Solid-phase kinase assay of N-terminal c-Jun kinase activity in HeLa cell extracts
Type: cell-based, human
Conditions: HeLa S3 cells, TPA 100 ng/ml
Description: Cell extracts were diluted so that the final composition of the WCE buffer was 20 mM HEPES pH 7.7, 75 mM NaCl, 2.5 mM MgCl2, 0.1 mM EDTA, 0.05% Triton X-100, 0.5 mM DTT, 20 mM β-glycerolphosphate, 0.1 mM Na3VO4, 2 μg/ml leupeptin, 100 μg/ml PMSF. The extracts were mixed with 10 μl of GSH-agarose suspension (Sigma) to which 10 μg of either GST or GST-Jun fusion proteins were bound. The mixture was rotated at 4° C. for 3 hours in a microfuge tube and pelleted by centrifugation at 10,000×g for 20 sec. After 4×1 ml washes in HEPES binding buffer (20 mM HEPES pH 7.7, 50 mM NaCl, 2.5 mM MgCl2, 0.1 mM EDTA, 0.05% Triton X-100), the pelleted beads were resuspended in 30 μl of kinase buffer (20 mM HEPES pH 7.6, 20 mM MgCl2, 20 mM β-glycerolphosphate, […] p-nitrophenyl phosphate, 0.1 mM Na3VO4, 2 mM DTT) containing 20 μM ATP and 5 μCi γ-^32P-ATP. After 20 minutes at 30° C. the reaction was terminated by washing with HEPES binding buffer. Phosphorylated proteins were eluted with 30 μl of 1.5×Laemlli sample buffer and resolved on a 10% SDS polyacrylamide gel, followed by autoradiography. Quantitation of phosphate incorporated was determined by gel slicing and scintillation counting. Phosphorylated GST fusion proteins were eluted from gel slices and subjected to phosphopeptide mapping as described (Boyle, et al., supra, 1991). […]

**Q.** How did the “N-terminal c-Jun kinase activity, effect of treatment” value turn out when CCCCCCCCCCCCCC(=O)O[C@@H]1[C@@H](C)[C@@]2(O)[C@@H](C=C(CO)C[C@]3(O)C(=O)C(C)=C[C@@H]23)[C@H]2C(C)(C)[C@]12OC(C)=O [TPA] was run?
**A.** minor compared to that of UV
